Measured values from ChEMBL document CHEMBL2440076, “New triarylpyrazoles as broad-spectrum anticancer agents: design, synthesis, and biological evaluation” (Eur J Med Chem, 2013).

Legend:
Type in all cases: functional
[1] = system: OVCAR-8; assay: Growth inhibition of human OVCAR8 cells assessed as cell growth at 3X10'-7 M after 48 hrs by sulforhodamine B assay; details: OVCAR-8, 48 h, read-out: Activity
[2] = system: MDA-MB-435; assay: Growth inhibition of human MDA-MB-435 cells assessed as cell growth at 3X10'-7 M after 48 hrs by sulforhodamine B assay; details: MDA-MB-435, 48 h, read-out: Activity
[3] = system: M14; assay: Growth inhibition of human M14 cells assessed as cell growth at 3X10'-7 M after 48 hrs by sulforhodamine B assay; details: M14, 48 h, read-out: Activity
[4] = system: HCT-116; assay: Growth inhibition of human HCT116 cells assessed as cell growth at 3X10'-7 M after 48 hrs by sulforhodamine B assay; details: HCT-116, 48 h, read-out: Activity
[5] = Growth inhibition of human HCC2998 cells assessed as cell growth at 3X10'-7 M after 48 hrs by sulforhodamine B assay; details: HCC 2998, 48 h, read-out: Activity
[6] = system: T47D; assay: Growth inhibition of human T47D cells assessed as cell growth at 3X10'-8 M after 48 hrs by sulforhodamine B assay; details: read-out: Activity
[7] = system: DU-145; assay: Growth inhibition of human DU145 cells assessed as cell growth at 3X10'-8 M after 48 hrs by sulforhodamine B assay; details: DU-145, 48 h, read-out: Activity
[8] = system: CAKI-1; assay: Growth inhibition of human CAKI-1 cells assessed as cell growth at 3X10'-8 M after 48 hrs by sulforhodamine B assay; details: CAKI-1, 48 h, read-out: Activity
[9] = system: MDA-MB-468; assay: Growth inhibition of human MDA-MB-468 cells assessed as cell growth at 3X10'-5 M after 48 hrs by sulforhodamine B assay; details: MDA-MB-468, 48 h, read-out: Activity
[10] = system: T47D; assay: Growth inhibition of human T47D cells assessed as cell growth at 3X10'-5 M after 48 hrs by sulforhodamine B assay; details: read-out: Activity
[11] = system: MDA-MB-231; assay: Growth inhibition of human MDA-MB-231 cells assessed as cell growth at 3X10'-5 M after 48 hrs by sulforhodamine B assay; details: MDA-MB-231, 48 h, read-out: Activity
[12] = system: OVCAR-3; assay: Growth inhibition of human OVCAR3 cells assessed as cell growth at 3X10'-8 M after 48 hrs by sulforhodamine B assay; details: OVCAR-3, 48 h, read-out: Activity
[13] = system: UACC-257; assay: Growth inhibition of human UACC257 cells assessed as cell growth at 3X10'-8 M after 48 hrs by sulforhodamine B assay; details: UACC-257, 48 h, read-out: Activity
[14] = system: MDA-MB-435; assay: Growth inhibition of human MDA-MB-435 cells assessed as cell growth at 3X10'-8 M after 48 hrs by sulforhodamine B assay; details: MDA-MB-435, 48 h, read-out: Activity
[15] = system: HT-29; assay: Growth inhibition of human HT-29 cells assessed as cell growth at 3X10'-8 M after 48 hrs by sulforhodamine B assay; details: HT-29, 48 h, read-out: Activity
[16] = system: HOP-62; assay: Growth inhibition of human HOP62 cells assessed as cell growth at 3X10'-8 M after 48 hrs by sulforhodamine B assay; details: HOP-62, 48 h, read-out: Activity
[17] = system: A549; assay: Growth inhibition of human A549/ATCC cells assessed as cell growth at 3X10'-8 M after 48 hrs by sulforhodamine B assay; details: A549, 48 h, read-out: Activity
[18] = Growth inhibition of human Hs 578T cells assessed as cell growth at 3X10'-9 M after 48 hrs by sulforhodamine B assay; details: read-out: Activity
[19] = system: CAKI-1; assay: Growth inhibition of human CAKI-1 cells assessed as cell growth at 3X10'-5 M after 48 hrs by sulforhodamine B assay; details: CAKI-1, 48 h, read-out: Activity
[20] = Growth inhibition of human NCI-ADR-RES cells assessed as cell growth at 3X10'-5 M after 48 hrs by sulforhodamine B assay; details: read-out: Activity
[21] = system: A498; assay: Growth inhibition of human A498 cells assessed as cell growth at 3X10'-9 M after 48 hrs by sulforhodamine B assay; details: A498, 48 h, read-out: Activity
[22] = system: UACC-257; assay: Growth inhibition of human UACC257 cells assessed as cell growth at 3X10'-5 M after 48 hrs by sulforhodamine B assay; details: UACC-257, 48 h, read-out: Activity
[23] = system: SK-MEL-5; assay: Growth inhibition of human SK-MEL-5 cells assessed as cell growth at 3X10'-5 M after 48 hrs by sulforhodamine B assay; details: SK-MEL-5, 48 h, read-out: Activity
[24] = system: SK-MEL-2; assay: Growth inhibition of human SK-MEL-2 cells assessed as cell growth at 3X10'-5 M after 48 hrs by sulforhodamine B assay; details: SK-MEL-2, 48 h, read-out: Activity
[25] = system: HT-29; assay: Growth inhibition of human HT-29 cells assessed as cell growth at 3X10'-5 M after 48 hrs by sulforhodamine B assay; details: HT-29, 48 h, read-out: Activity
[26] = system: DU-145; assay: Growth inhibition of human DU145 cells assessed as cell growth at 3X10'-6 M after 48 hrs by sulforhodamine B assay; details: DU-145, 48 h, read-out: Activity
[27] = system: MDA-MB-435; assay: Growth inhibition of human MDA-MB-435 cells assessed as cell growth at 3X10'-9 M after 48 hrs by sulforhodamine B assay; details: MDA-MB-435, 48 h, read-out: Activity
[28] = system: Malme-3M; assay: Growth inhibition of human MALME-3M cells assessed as cell growth at 3X10'-9 M after 48 hrs by sulforhodamine B assay; details: read-out: Activity
[29] = system: HOP-92; assay: Growth inhibition of human HOP92 cells assessed as cell growth at 3X10'-9 M after 48 hrs by sulforhodamine B assay; details: HOP-92, 48 h, read-out: Activity
[30] = system: OVCAR-3; assay: Growth inhibition of human OVCAR3 cells assessed as cell growth at 3X10'-6 M after 48 hrs by sulforhodamine B assay; details: OVCAR-3, 48 h, read-out: Activity
[31] = system: Malme-3M; assay: Growth inhibition of human MALME-3M cells assessed as cell growth at 3X10'-6 M after 48 hrs by sulforhodamine B assay; details: read-out: Activity
[32] = system: SW-620; assay: Growth inhibition of human SW620 cells assessed as cell growth at 3X10'-6 M after 48 hrs by sulforhodamine B assay; details: SW-620, 48 h, read-out: Activity
[33] = system: A549; assay: Growth inhibition of human A549/ATCC cells assessed as cell growth at 3X10'-6 M after 48 hrs by sulforhodamine B assay; details: A549, 48 h, read-out: Activity
[34] = system: MCF7; assay: Growth inhibition of human MCF7 cells assessed as cell growth at 3X10'-7 M after 48 hrs by sulforhodamine B assay; details: MCF7, 48 h, read-out: Activity
[35] = system: UO-31; assay: Growth inhibition of human UO31 cells assessed as cell growth at 3X10'-7 M after 48 hrs by sulforhodamine B assay; details: UO-31, 48 h, read-out: Activity
[36] = system: CAKI-1; assay: Growth inhibition of human CAKI-1 cells assessed as cell growth at 3X10'-7 M after 48 hrs by sulforhodamine B assay; details: CAKI-1, 48 h, read-out: Activity
[37] = system: SF-295; assay: Growth inhibition of human SF295 cells assessed as cell growth at 3X10'-8 M after 48 hrs by sulforhodamine B assay; details: SF-295, 48 h, read-out: Activity

O=C(Nc1cccc(-n2cc(-c3ccncc3)c(-c3ccc(Cl)c(O)c3)n2)c1)Nc1ccc(Cl)c(Cl)c1
growth at 0.3 µM [1]: 95% | growth at 0.3 µM [2]: 91% | growth at 0.3 µM [3]: 96% | growth at 0.3 µM [4]: 99% | growth at 0.3 µM [5]: 115% | growth at 0.03 µM [6]: 95% | growth at 0.03 µM [7]: 100% | growth at 0.03 µM [8]: 94% | growth at 30 µM [9]: -18% | growth at 30 µM [10]: -9% | growth at 30 µM [11]: -22% | growth at 0.03 µM [12]: 100% | growth at 0.03 µM [13]: 93% | growth at 0.03 µM [14]: 96% | growth at 0.03 µM [15]: 104% | growth at 0.03 µM [16]: 96% | growth at 0.03 µM [17]: 100% | growth at 0.003 µM [18]: 89% | growth at 30 µM [19]: -9% | growth at 30 µM [20]: 6% | growth at 0.003 µM [21]: 103% | growth at 30 µM [22]: -24% | growth at 30 µM [23]: -95% | growth at 30 µM [24]: -50% | growth at 30 µM [25]: 3% | growth at 3 µM [26]: 22% | growth at 0.003 µM [27]: 95% | growth at 0.003 µM [28]: 92% | growth at 0.003 µM [29]: 98% | growth at 3 µM [30]: -1% | growth at 3 µM [31]: 10% | growth at 3 µM [32]: 23% | growth at 3 µM [33]: 14% | growth at 0.3 µM [34]: 94% | growth at 0.3 µM [35]: 93% | growth at 0.3 µM [36]: 88%

O=C(Nc1cccc(-n2cc(-c3ccncc3)c(-c3ccc(Cl)c(O)c3)n2)c1)Nc1cccc(C(F)(F)F)c1
growth at 0.3 µM [1]: 91% | growth at 0.3 µM [2]: 96% | growth at 0.3 µM [3]: 100% | growth at 0.3 µM [4]: 98% | growth at 0.3 µM [5]: 106% | growth at 0.03 µM [6]: 95% | growth at 0.03 µM [7]: 99% | growth at 0.03 µM [8]: 94% | growth at 30 µM [9]: -27% | growth at 30 µM [10]: 7% | growth at 30 µM [11]: -5% | growth at 0.03 µM [12]: 93% | growth at 0.03 µM [13]: 100% | growth at 0.03 µM [14]: 100% | growth at 0.03 µM [37]: 99% | growth at 0.03 µM [15]: 99% | growth at 0.03 µM [16]: 98% | growth at 0.03 µM [17]: 100% | growth at 0.003 µM [18]: 93% | growth at 30 µM [19]: 2% | growth at 30 µM [20]: 7% | growth at 0.003 µM [21]: 92% | growth at 30 µM [22]: -18% | growth at 30 µM [23]: -90% | growth at 30 µM [24]: -32% | growth at 30 µM [25]: 1% | growth at 3 µM [26]: 33% | growth at 0.003 µM [27]: 102% | growth at 0.003 µM [28]: 96% | growth at 0.003 µM [29]: 85% | growth at 3 µM [30]: 10% | growth at 3 µM [31]: 37% | growth at 3 µM [32]: 53% | growth at 3 µM [33]: 24% | growth at 0.3 µM [34]: 89% | growth at 0.3 µM [35]: 90% | growth at 0.3 µM [36]: 91%

O=C(Nc1cccc(-n2cc(-c3ccncc3)c(-c3ccc(Cl)c(O)c3)n2)c1)Nc1ccc(Cl)c(C(F)(F)F)c1
growth at 0.3 µM [1]: 89% | growth at 0.3 µM [2]: 86% | growth at 0.3 µM [3]: 94% | growth at 0.3 µM [4]: 94% | growth at 0.3 µM [5]: 95% | growth at 0.03 µM [6]: 103% | growth at 0.03 µM [7]: 105% | growth at 0.03 µM [8]: 91% | growth at 30 µM [9]: -43% | growth at 30 µM [10]: 10% | growth at 30 µM [11]: -60% | growth at 0.03 µM [12]: 113% | growth at 0.03 µM [13]: 94% | growth at 0.03 µM [14]: 94% | growth at 0.03 µM [37]: 92% | growth at 0.03 µM [15]: 107% | growth at 0.03 µM [16]: 100% | growth at 0.03 µM [17]: 94% | growth at 0.003 µM [18]: 91% | growth at 30 µM [19]: -25% | growth at 30 µM [20]: -1% | growth at 0.003 µM [21]: 91% | growth at 30 µM [22]: -90% | growth at 30 µM [23]: -97% | growth at 30 µM [24]: -76% | growth at 30 µM [25]: -63% | growth at 3 µM [26]: 10% | growth at 0.003 µM [27]: 97% | growth at 0.003 µM [28]: 100% | growth at 0.003 µM [29]: 79% | growth at 3 µM [30]: -24% | growth at 3 µM [31]: -32% | growth at 3 µM [32]: 5% | growth at 3 µM [33]: 7% | growth at 0.3 µM [34]: 71% | growth at 0.3 µM [35]: 82% | growth at 0.3 µM [36]: 87%
